Measurements taken from patent publication US20230128688A1, “DIRECTED CONJUGATION TECHNOLOGIES” (KLEO PHARMACEUTICALS, INC., priority 2019, published 2023).
Starred links: 1 amine or outer side, 2 acyl side, 3 side chain; linkers in the order of their positions; H or OH if unused. Positions of bridges follow the written chain, without caps; N, C: chain ends. Non-standard residues stand in square brackets, D forms with d. Residues, ends and D or L forms follow the SMILES beside them. Groups on a side chain read outwards from the residue. *: point of attachment. FITC = O=C1OC2(c3ccc(O)cc3Oc3cc(O)ccc32)c2ccc(NC(=S)*)cc21; X6 = O=C([C@H](Cc1cccc(O[*:3])c1)N[*:1])[*:2]; PEG8 = NCCOCCOCCOCCOCCOCCOCCOCCOCCC(=O)O; PEG6 = NCCOCCOCCOCCOCCOCCOCCC(=O)O; PEG2 = NCCOCCOCCC(=O)O; X7 = Fc1ccc(O*)cc1

System: daratumumab
Test: Absorbance based DAR analysis of FITC conjugation to antibody
Format: biochemical
Description: In some embodiments, reaction partners, e.g., compounds of formula R-I or salts thereof ere dissolved in DMSO to 5 mM stock solution.
In some embodiments, reactions are set up with 300 micrograms of antibody. In some embodiments, various conditions, including various buffers, reagent equivalents, reaction time, reaction temperature and reaction concentrations can be utilized.
As an example, one reaction is 300 microliter reaction with 1 mg/mL of antibody in PBS. Peptide I-45 (1 microliter of 5 mM stock in DMSO, 2.5 molar equivalents relative to daratumumab) was diluted in 284 microliters of PBS buffer (10 mM phosphate, 150 mM sodium chloride, pH 7.4), then 15 microliters of daratumumab (20 mg/mL stock) was added to the reaction mixture followed by incubation at room temperature in the dark. After 4 h reaction buffer was exchanged using Amicon Ultra centrifuge filter (30 KDa MWCO, 0.5 mL volume). First, glycine buffer (100 mM, pH 2.1) was used for buffer exchange to ensure dissociation of target binding moieties after reaction. Then, phosphate buffer saline (pH 7.4) was used for further buffer exchange and storage.
In another example, a reaction is 300 microliter reaction with 1 mg/mL of antibody in borate buffer. Peptide I-44 (1.2 microliter of 5 mM stock in DMSO, 3.0 molar equivalents relative to daratumumab) was diluted in 284 microliters of Borate buffer (100 mM borate, pH 8.3), then 15 microliters of daratumumab (20 mg/mL stock) was added to the reaction mixture followed by incubation at room temperature in the dark. After 20 h reaction buffer was exchanged using Amicon Ultra centrifuge filter (30 KDa MWCO, 0.5 mL volume). First, glycine buffer (100 mM, pH 2.1) was used for buffer exchange to ensure dissociation of target binding moieties after reaction. Then, phosphate buffer saline (10 mM phosphate, 150 mM sodium chloride, pH 7.4) was used for further buffer exchange and storage.
In some embodiments, a useful technology is absorbance based DAR analysis. DAR (ratio of moieties of interest and target agent moieties (e.g., antibody agent moieties) was calculated for various antibody conjugates, e.g., in various reagent screening/assessment methods. Various agents comprising target binding moieties were assessed for conjugation efficiency as reaction partners with targets, e.g. protein agents such as antibody agents, compared to reagents with the same reactive groups but without target binding moieties. In various ratio determination ‘Drug’/moiety of interest is fluorescein isothiocyanate (FITC) dye conjugated to target agents, e.g., antibody agents. DAR molar ratio is defined as a ratio of moles of drug/moiety of interest to moles of target agent/antibody. Molarity is calculated from absorbance of FITC (A485) and antibody (A280) of conjugated product, and extinction coefficients of FITC and antibody using Beer-Lambert law. Correction coefficient 0.35 was used to correct for absorbance of FITC at 280 nm. Biotek Synergy H1 microplate reader and Take3 microvolume plate were used for absorbance measurements. Concentration of antibody was at least 3 mg/mL for optimal signal-to-noise in the readings. Certain target binding moieties that can provide higher DAR compared to equivalent controls (absence of target binding moieties) were selected as hits for further analysis. Certain assessment data were provided below as examples.

[1] = 5 M eq reagent, bicarbonate buffer pH 8.3, 20 h, 37 C, Drug = FITC
[2] = 10 M eq reagent, Bicarbonate buffer pH 8.3, 20 h, 25 C, Drug = FITC
[3] = 2.5 M eq reagent, phosphate buffer saline pH 7.4, 4 h, 25 C, Drug = FITC
[4] = 10 M eq reagent, Bicarbonate buffer pH 8.3, 2 h, 37 C, Drug = FITC
[5] = 30 M eq reagent, borate buffer pH 8.3, 20 h, 37 C, Drug = FITC
[6] = 5 M eq reagent, phosphate buffer saline pH 7.4, 4 h, 25 C, Drug = FITC

SMILES: Cc1nc2cc(C(=O)Nc3nc(-c4ccccn4)cs3)ccc2n1CCCC(=O)NCc1ccc(OC(=O)CCOCCOCCOCCOCCOCCOCCNC(=S)Nc2ccc3c(c2)C(=O)OC32c3ccc(O)cc3Oc3cc(O)ccc32)cc1 [Compound I-13]
- DAR [1]: 0.09

SMILES: N=C(N)NCCC[C@H](NC(=O)CCOCCOCCOCCOCCOCCOCCOCCOCCNC(=O)c1ccc(OC(=O)CCOCCOCCOCCOCCOCCOCCNC(=S)Nc2ccc3c(c2)C(=O)OC32c3ccc(O)cc3Oc3cc(O)ccc32)cc1)C(=O)N[C@@H](CCCNC(=N)N)C(=O)NCC(=O)N[C@@H](Cc1c[nH]c2ccccc12)C(=O)O [Compound I-21]
- DAR [2]: 0.18

SMILES: CC(=O)N[C@@H](CC(=O)O)C(=O)N[C@H]1CSSC[C@@H](C(=O)N[C@H](C(=O)O)[C@@H](C)O)NC(=O)[C@H](Cc2c[nH]c3ccccc23)NC(=O)[C@H](C(C)C)NC(=O)[C@H](CC(C)C)NC(=O)[C@H](CCC(=O)O)NC(=O)CNC(=O)[C@H](CC(C)C)NC(=O)[C@H](CCNC(=O)c2ccc(OC(=O)CCOCCOCCOCCOCCOCCOCCNC(=S)Nc3ccc4c(c3)C(=O)OC43c4ccc(O)cc4Oc4cc(O)ccc43)cc2)NC(=O)[C@H](Cc2c[nH]c3ccccc23)NC(=O)[C@H](C)NC1=O [Compound I-42]
- DAR [3]: 0.13

SMILES: CC(=O)NCc1ccc(OC(=O)CCOCCOCCOCCOCCOCCOCCNC(=S)Nc2ccc3c(c2)C(=O)OC32c3ccc(O)cc3Oc3cc(O)ccc32)c(F)c1 [Compound I-10]
- DAR [3]: 0.08
- DAR (2.5 M eq, 25 C, 4 h, PBS pH 7.4): 0.08
- DAR (2.5 M eq, 25 C, 20 h, Borate pH 8.2): 0.21
- DAR (2.5 M eq, 25 C, 20 h, PBS pH 7.4): 0.07
- DAR (2.5 M eq, 25 C, 20 h, PBS pH 7.8): 0.15
- DAR (2.5 M eq, 25 C, 20 h, PBS pH 8.0): 0.06
- DAR (2.5 M eq, 25 C, 20 h, PBS pH 8.2): 0.03
- DAR (2.5 M eq, 30 C, 20 h, PBS pH 7.4): 0.05
- DAR (2.5 M eq, 37 C, 20 h, PBS pH 7.4): 0.17
- DAR [4]: 0.14
- DAR [5]: 0.98

SMILES: CCCCNc1nc(NCCOCCOCCC(=O)NCc2cc(F)c(OC(=O)CCOCCOCCOCCOCCOCCOCCNC(=S)Nc3ccc4c(c3)C(=O)OC43c4ccc(O)cc4Oc4cc(O)ccc43)c(F)c2)nc(NCc2cccc(F)c2)n1 [Compound I-2]
- DAR [4]: 1.76

SMILES: Cc1nc2cc(C(=O)Nc3nc(-c4ccccn4)cs3)ccc2n1CCCC(=O)NCc1cc(F)c(OC(=O)CCOCCOCCOCCOCCOCCOCCNC(=S)Nc2ccc3c(c2)C(=O)OC32c3ccc(O)cc3Oc3cc(O)ccc32)c(F)c1 [Compound I-3]
- DAR [4]: 1.39

SMILES: O=C(CCCc1c[nH]c2ccccc12)NCc1cc(F)c(OC(=O)CCOCCOCCOCCOCCOCCOCCNC(=S)Nc2ccc3c(c2)C(=O)OC32c3ccc(O)cc3Oc3cc(O)ccc32)c(F)c1 [Compound I-16]
- DAR [1]: 0.30

SMILES: CC(=O)N[C@@H](CC(=O)O)C(=O)N[C@H]1CSSC[C@@H](C(=O)N[C@H](C(=O)O)[C@@H](C)O)NC(=O)[C@H](Cc2c[nH]c3ccccc23)NC(=O)[C@H](C(C)C)NC(=O)[C@H](CC(C)C)NC(=O)[C@H](CCC(=O)O)NC(=O)CNC(=O)[C@H](CC(C)C)NC(=O)[C@H](CC(=O)NCc2ccc(OC(=O)CCOCCOCCOCCOCCOCCOCCNC(=S)Nc3ccc4c(c3)C(=O)OC43c4ccc(O)cc4Oc4cc(O)ccc43)cc2)NC(=O)[C@H](Cc2c[nH]c3ccccc23)NC(=O)[C@H](C)NC1=O [Compound I-43]
- DAR [3]: 0.26

SMILES: COc1ccc(NC(=O)c2cn3ccsc3n2)cc1C(=O)NCCCC(=O)NCc1cc(F)c(OC(=O)CCOCCOCCOCCOCCOCCOCCNC(=S)Nc2ccc3c(c2)C(=O)OC32c3ccc(O)cc3Oc3cc(O)ccc32)c(F)c1 [Compound I-1]
- DAR [4]: 1.00

SMILES: CC(=O)N[C@@H](CC(=O)O)C(=O)N[C@H]1CSSC[C@@H](C(=O)N[C@H](C(=O)O)C(C)C)NC(=O)[C@H](Cc2c[nH]c3ccccc23)NC(=O)[C@H](C(C)C)NC(=O)[C@H](CC(C)C)NC(=O)[C@H](CCC(=O)O)NC(=O)CNC(=O)[C@H](CC(C)C)NC(=O)[C@H](Cc2cccc(OC(=O)CCOCCOCCOCCOCCOCCOCCOCCOCCNC(=S)Nc3ccc4c(c3)C(=O)OC43c4ccc(O)cc4Oc4cc(O)ccc43)c2)NC(=O)[C@H](Cc2c[nH]c3ccccc23)NC(=O)[C@H](C)NC1=O [Compound I-46] (Ac-DCAW[X6]([PEG8-FITC])LGELVWCV-OH; disulfide 2-12)
- DAR [6]: 0.15
- DAR [5]: 0.43

SMILES: N=C(N)NCCC[C@H](NC(=O)CCOCCOCCOCCOCCNC(=O)c1ccc(OC(=O)CCOCCOCCOCCOCCOCCOCCNC(=S)Nc2ccc3c(c2)C(=O)OC32c3ccc(O)cc3Oc3cc(O)ccc32)cc1)C(=O)N[C@@H](CCCNC(=N)N)C(=O)NCC(=O)N[C@@H](Cc1c[nH]c2ccccc12)C(=O)O [Compound I-22]
- DAR [2]: −0.18

SMILES: CC(=O)NCc1ccc(OC(=O)CCOCCOCCOCCOCCOCCOCCNC(=S)Nc2ccc3c(c2)C(=O)OC32c3ccc(O)cc3Oc3cc(O)ccc32)cc1 [Compound I-11]
- DAR [3]: 0.05
- DAR [4]: 0.14
- DAR [5]: 0.14

SMILES: CC(=O)N[C@@H](CC(=O)O)C(=O)N[C@H]1CSSC[C@@H](C(=O)N[C@H](C(=O)O)[C@@H](C)O)NC(=O)[C@H](Cc2c[nH]c3ccccc23)NC(=O)[C@H](C(C)C)NC(=O)[C@H](CC(C)C)NC(=O)[C@H](CCC(=O)O)NC(=O)CNC(=O)[C@H](CCC(=O)Nc2cc(OC(=O)CCOCCOCCOCCOCCOCCOCCOCCOCCNC(=S)Nc3ccc4c(c3)C(=O)OC43c4ccc(O)cc4Oc4cc(O)ccc43)ccc2F)NC(=O)[C@H](Cc2c[nH]cn2)NC(=O)[C@H](Cc2c[nH]c3ccccc23)NC(=O)[C@H](C)NC1=O [Compound I-24]
- DAR [6]: 0.05
- DAR [5]: 0.83

SMILES: COc1ccc(NC(=O)c2cn3ccsc3n2)cc1C(=O)NCCCC(=O)N[C@@H](CCC(=O)N(C)OC)C(=O)NCCOCCOCCOCCOCCOCCOCCOCCOCCN(CCCS(=O)(=O)O)C(=O)OC[C@H]1[C@@H]2CCc3c(nnn3CCOCCOCCOCCOCCNC(=S)Nc3ccc4c(c3)C(=O)OC43c4ccc(O)cc4Oc4cc(O)ccc43)CC[C@@H]21 [Compound I-20]
- DAR [2]: 0.72

SMILES: N=C(N)NCCC[C@H](NC(=O)CCOCCOCCNC(=O)[C@@H](CCC(=O)Oc1ccc(F)cc1)NC(=O)CCOCCOCCOCCOCCOCCOCCNC(=S)Nc1ccc2c(c1)C(=O)OC21c2ccc(O)cc2Oc2cc(O)ccc21)C(=O)N[C@@H](CCCNC(=N)N)C(=O)NCC(=O)N[C@@H](Cc1c[nH]c2ccccc12)C(=O)O [Compound I-26] ({FITC-PEG6}-[dE](X7)[PEG2]RRGW-OH)
- DAR [5]: −0.10

SMILES: N=C(N)NCCC[C@H](NC(=O)CCOCCOCCOCCOCCOCCOCCOCCOCCNC(=O)[C@H](CCC(=O)Oc1ccc(F)cc1)NC(=O)CCOCCOCCOCCOCCOCCOCCNC(=S)Nc1ccc2c(c1)C(=O)OC21c2ccc(O)cc2Oc2cc(O)ccc21)C(=O)N[C@@H](CCCNC(=N)N)C(=O)NCC(=O)N[C@@H](Cc1c[nH]c2ccccc12)C(=O)O [Compound I-27] ({FITC-PEG6}-E(X7)[PEG8]RRGW-OH)
- DAR [5]: −0.02

SMILES: CC(C)C[C@@H]1NC(=O)[C@H](Cc2cnc[nH]2)NC(=O)[C@H](Cc2c[nH]c3ccccc23)NC(=O)[C@H](C)NC(=O)[C@@H](NC(=O)[C@@H](N)CC(=O)O)CSSC[C@@H](C(=O)N[C@H](C(=O)O)[C@@H](C)O)NC(=O)[C@H](Cc2c[nH]c3ccccc23)NC(=O)[C@H](C(C)C)NC(=O)[C@H](CC(C)C)NC(=O)[C@H](CCC(=O)Nc2cc(OC(=O)CCOCCOCCOCCOCCOCCOCCOCCOCCNC(=S)Nc3ccc4c(c3)C(=O)OC43c4ccc(O)cc4Oc4cc(O)ccc43)ccc2F)NC(=O)CNC1=O [Compound I-25]
- DAR [6]: 0.10
- DAR [5]: 1.25

SMILES: Cc1nc2cc(C(=O)Nc3nc(-c4ccccn4)cs3)ccc2n1CCCC(=O)NCc1ccc(OC(=O)CCOCCOCCOCCOCCOCCOCCNC(=O)Nc2ccc3c(c2)C(=O)OC32c3ccc(O)cc3Oc3cc(O)ccc32)c(F)c1 [Compound I-12]
- DAR [1]: 1.44
